Assay results published in US9040715B2 (priority 2008, dated 2015).
Values after ≈ are worked out from the molar mass of the structure shown. Like-named read-outs stand apart in the source and are kept apart here. *1 amine or outer side, *2 acyl side, *3 side chain or, on linkers, in order; H or OH if unused. Where a SMILES comes first, the peptide text is derived from it. Bridges are numbered along the chain shown (N, C = ends). [ ]: non-standard residue; d: D form. The star is where a group is joined. hTyr(3S-OH,4S-OH,3'-OSO3H) = N[C@H](C(=O)O)[C@H](O)[C@@H](O)c1ccc(O)c(OS(=O)(=O)O)c1; Orn(4R-OH,5R-OH) = O=C([C@H](C[C@@H](O)[C@@H](O)N[*:3])N[*:1])[*:2]; Pro(3S-OH,4S-Me) = C[C@H]1CN[C@H](C(=O)O)[C@H]1O; X1 = CCCCCOc1ccc(-c2cc(-c3ccc(C(=O)*)cc3)no2)cc1; Gln(3R-OH) = NC(=O)C[C@@H](O)[C@H](N)C(=O)O; Hyp = O=C(O)[C@@H]1C[C@@H](O)CN1

Assays:
Format in all cases: cell-based
[1] = test system: Fluconazole Resistant C. albicans; test: microbe, parasite or virus in culture; conditions: Candida albicans, read-out: MIC50
Experimental: (§1) The minimum inhibitory concentrations resulting in 50% growth inhibition (MIC50) of […] Candida species (C. albicans, C. tropicalis and C. glabrata, C. lusitaniae, C. parapsilosis, and C. apicola) as well as Aspergillus fumigatus to a set of novel synthetic compounds was determined in accordance with the guidelines in CLSI document M27-A2 (Clinical and Laboratory Standards Institute; Wayne, Pa.). The total volume of cells and drug was 100 μL per microtiter well, and each drug was diluted in RPMI to achieve final concentrations of 0.2-100 μg/ml. Uninoculated cultures were used as a reference standard. Stock inoculum suspensions were prepared from 24 hour cultures on YPD (yeast extract/peptone/dextrose) media at 30° C. For MIC determinations, an inoculum of 1.0×10^3 cells of Candidia and 2.0×10^3 cells of Aspergillus per well were used, and cells in diluted drugs were prepared in RPMI-1640 medium. MICs were determined both visually and spectrophotometrically at 24 hours and 48 h at 550 nm using a micro plate reader. The MIC50 endpoint was measured as the lowest drug concentration resulting in a reduction of growth of 50% or more compared with growth of the control.
The MIC50 of Compounds I-1, I-2, and I-5 in several mutant strains of Candida albicans, including fluconazole resistant clinical strains, was determined according to the methods described in Example 1 (see Table 9). The activity of Compound I-1 against fluconazole resistant strains was further explored (see Table 10). In Table 10, Strain #1 is a fluconazole sensitive Candida albicans strain; Strain #17 is a fluconazole resistant Candida albicans strain; C. albicans CS#01 is a first clinical strain; C. albicans CS#02 is a second clinical strain.

[2] = test system: Saccharomyces cerevisiae (YPH501); test: Anti-fungal/anti-yeast activity: MIC50 (broth microdilution) and MFC
[3] = test system: Candida albicans (CAF-2); test: as above
Experimental: (§2) Fluconazole, an ergosterol inhibitor, and the beta-1,3-glucan inhibitor micafungin served as controls (See Tables 1-8).
as §1
(§3) The minimum fungicidal concentrations (MFCs) were determined for each drug-isolate-medium combination as follows. After 48 hours of incubation, 100 μL of each drug-isolate-medium combination (2 plates) was subcultured onto YPD plates (100 μL of solution was spread over the YPD plate). […] The plates were then incubated at 30° C. for 48 hours.
(§4) The in vitro fungicidal activities (MFCs) were determined for each drug-isolate-medium combination as follows. After 48 hours of incubation, 10 μL each drug-isolate-medium combination was spotted onto YPD plates (10 μL of each well is spotted sequentially with positive and negative control wells). […] The plates were then incubated at 30° C. for 48 hours.

[4] = test system: Candida lusitaniae; test: as above; conditions: for MFC / MIC50: Clavispora lusitaniae
Experimental: as §2, §1, §3, §4

[5] = test system: Aspergillus fumigatus; test: as above
Experimental: as §2, §1, §3, §4

[6] = test system: Candidia parapsilosis; test: as above
Experimental: as §2, §1, §3, §4

[7] = test system: Candida tropicalis; test: as above
Experimental: as §2, §1, §3, §4

[8] = test system: Candida glabrata; test: as above; conditions: for MFC / MIC50: Nakaseomyces glabratus
Experimental: as §2, §1, §3, §4

[9] = test system: Candida apicola; test: as above; conditions: for MFC / MIC50: Starmerella apicola
Experimental: as §2, §1, §3, §4

[10] = Saccharomyces cerevisiae (YPH501)

Row | SMILES | Activity (fungicidal/fungistatic) [2, 10] | Ratio MFC/MIC [2, 10] | Activity (fungicidal/fungistatic) [3] | MFC [3] | MIC50 [3] | Ratio MFC/MIC [3] | Activity (fungicidal/fungistatic) ([4]; Candida lusitaniae) | Ratio MFC/MIC ([4]; Candida lusitaniae) | Activity (fungicidal/fungistatic) [5] | Ratio MFC/MIC [5] | Activity (fungicidal/fungistatic) ([6]; Candidia parapsilosis) | Ratio MFC/MIC ([6]; Candidia parapsilosis) | Activity (fungicidal/fungistatic) [7] | Ratio MFC/MIC [7] | Activity (fungicidal/fungistatic) ([8]; Candida glabrata) | Ratio MFC/MIC ([8]; Candida glabrata) | Activity (fungicidal/fungistatic) ([9]; Candida apicola) | Ratio MFC/MIC ([9]; Candida apicola) | also measured
1 | OC(Cn1cncn1)(Cn1cncn1)c1ccc(F)cc1F [Fluconazole, reference compound] | fungicidal (An MFC/MIC ratio of less than four indicates that the compound is fungicidal) | 1 | fungistatic (an MFC/MIC ratio of greater than four indicates that the compound is fungistatic) | 5 µg/mL | 0.25 µg/mL | 20 | fungistatic (an MFC/MIC ratio of greater than four indicates that the compound is fungistatic) | 8 | fungistatic (an MFC/MIC ratio of greater than four indicates that the compound is fungistatic) | 7 | fungistatic (an MFC/MIC ratio of greater than four indicates that the compound is fungistatic) | 10 | fungistatic (an MFC/MIC ratio of greater than four indicates that the compound is fungistatic) | 5 | fungistatic (an MFC/MIC ratio of greater than four indicates that the compound is fungistatic) | 9 | fungistatic (an MFC/MIC ratio of greater than four indicates that the compound is fungistatic) | 5 | MIC50 ([1]; C. albicans CS#01, first clinical strain): 1.6 µg/mL (≈ 5.22 µM); MIC50 ([1]; C. albicans CS#02, second clinical strain): 1.6 µg/mL (≈ 5.22 µM); MIC50 ([1]; Strain #1, fluconazole sensitive Candida albicans strain): 0.8 µg/mL (≈ 2.61 µM); MIC50 ([1]; Strain #17, fluconazole resistant Candida albicans strain): > 100 µg/mL; MFC ([2]; Saccharomyces cerevisiae (YPH501), read-out: MFC): 10 µg/mL (≈ 32.7 µM); MIC50 ([2]; Saccharomyces cerevisiae (YPH501), read-out: MIC-50): 10 µg/mL (≈ 32.7 µM); MFC ([4]; Candida lusitaniae, read-out: MFC): 25 µg/mL; MIC50 ([4]; Candida lusitaniae, read-out: MIC-50): 3.2 µg/mL; MFC ([5]; read-out: MFC): 200 µg/mL; MIC50 ([5]; read-out: MIC-50): 30 µg/mL; MFC ([6]; Candidia parapsilosis, read-out: MFC): 4 µg/mL; MIC50 ([6]; Candidia parapsilosis, read-out: MIC-50): 0.4 µg/mL; MFC ([7]; read-out: MFC): 100 µg/mL; MIC50 ([7]; read-out: MIC-50): 20 µg/mL; MFC ([8]; Candida glabrata, read-out: MFC): 50 µg/mL; MIC50 ([8]; Candida glabrata, read-out: MIC-50): 6.2 µg/mL; MFC ([9]; Candida apicola, read-out: MFC): 1 µg/mL; MIC50 ([9]; Candida apicola, read-out: MIC-50): 0.2 µg/mL
2 | CCCCCOc1ccc(-c2cc(-c3ccc(C(=O)N[C@H]4C[C@@H](O)[C@@H](O)NC(=O)[C@@H]5[C@@H](O)[C@@H](C)CN5C(=O)[C@H]([C@H](O)CC(N)=O)NC(=O)[C@H]([C@H](O)[C@@H](O)c5ccc(O)c(OS(=O)(=O)O)c5)NC(=O)[C@@H]5C[C@@H](O)CN5C(=O)[C@H]([C@@H](C)O)NC4=O)cc3)no2)cc1 [Micafungin, micafungin, reference compound] (X1-[Orn(4R-OH,5R-OH)]T[Hyp][hTyr(3S-OH,4S-OH,3'-OSO3H)][Gln(3R-OH)][Pro(3S-OH,4S-Me)]; lactam 1-C) | fungicidal (An MFC/MIC ratio of less than four indicates that the compound is fungicidal) | 2 | fungicidal (An MFC/MIC ratio of less than four indicates that the compound is fungicidal) | 0.016 µg/mL | 0.016 µg/mL | 1 | fungicidal (An MFC/MIC ratio of less than four indicates that the compound is fungicidal) | 1 | fungistatic (an MFC/MIC ratio of greater than four indicates that the compound is fungistatic) | 8 | fungistatic (an MFC/MIC ratio of greater than four indicates that the compound is fungistatic) | 8 | fungicidal (An MFC/MIC ratio of less than four indicates that the compound is fungicidal) | 2 | fungicidal (An MFC/MIC ratio of less than four indicates that the compound is fungicidal) | 1 | fungicidal (An MFC/MIC ratio of less than four indicates that the compound is fungicidal) | 2 | MFC ([2]; Saccharomyces cerevisiae): 0.064 µg/mL (≈ 0.0504 µM); MIC50 ([2]; Saccharomyces cerevisiae): 0.032 µg/mL (≈ 0.0252 µM); MFC [4]: 0.032 µg/mL; MIC50 [4]: 0.032 µg/mL; MFC [5]: 8 µg/mL; MIC50 [5]: 1 µg/mL; MFC [6]: 3.2 µg/mL; MIC50 [6]: 0.4 µg/mL; MFC [7]: 0.032 µg/mL; MIC50 [7]: 0.016 µg/mL; MFC [8]: 0.016 µg/mL; MIC50 [8]: 0.016 µg/mL; MFC [9]: 0.032 µg/mL; MIC50 [9]: 0.016 µg/mL
